Values quoted from earlier work as cited in patent US20060257434A1, “Production of emulsions of pharmaceutical compositions” (priority 2005, published 2006).

Conditions: over a physiological pH range

CCCn1c(=O)c2[nH]c(C34CC5CC(CC3C5)C4)nc2n(CCC)c1=O [KW-3902, 8-(3-noradamantyl)-1,3-dipropylxanthine]
solubility: less than 1 μg/ml
